Reference: patent US9776979B2, “EBI2 modulators” (Sanford-Burnham Medical Research Institute, priority 2013, dated 2017)

target: EBI2 (Homo sapiens, UniProt P32249); experiment: Cell-based luminescent assay (EBI2 modulation); details: not given
In short: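 Cells plated overnight at 37° C, then exposed to compound at 4-5 uM final with 80 nM 7a,25-OHC agonist for 60 min at 37° C. Luminescence read after 60 min detection at 25° C in the dark; values normalized to neutral and stimulator controls and plate-pattern corrected.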

Chain of EBI2 (P32249 whole entry): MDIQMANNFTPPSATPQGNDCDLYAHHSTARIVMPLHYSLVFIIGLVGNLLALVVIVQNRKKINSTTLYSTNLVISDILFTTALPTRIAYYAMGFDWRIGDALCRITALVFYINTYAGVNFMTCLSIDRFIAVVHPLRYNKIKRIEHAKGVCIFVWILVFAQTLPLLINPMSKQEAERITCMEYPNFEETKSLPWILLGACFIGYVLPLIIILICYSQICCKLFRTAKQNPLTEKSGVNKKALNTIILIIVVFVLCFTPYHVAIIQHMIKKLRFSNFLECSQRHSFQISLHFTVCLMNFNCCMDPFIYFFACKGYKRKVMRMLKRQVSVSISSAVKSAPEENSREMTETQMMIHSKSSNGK

Compound	IC50
O=C(c1cc2cc(Cl)ccc2[nH]1)N1CCC(Nc2ccc(F)cc2)CC1 [Compound C226, 5-chloroindol-2-yl 4-[(4-fluorophenyl)amino]piperidyl ketone]	< 100 nM

same assay, conditions: cell-based luminescence; 7a,25-OHC final assay concentration 80 nM; 60 minutes incubation; read-out: IC50

Compound	IC50
O=C(/C=C/c1ccc(F)cc1)N1CCCN(S(=O)(=O)/C=C/c2ccccc2)CC1 [Compound C198, (2E)-1-{4-[((1E)-2-phenylvinyl)sulfonyl](1,4-diazaperhydroepinyl)}-3-(4-fluorophenyl)prop-2-en-1-one]	500 to 5000 nM
1-[4-(diphenylmethyl)piperazinyl]-3-[2-(trifluoromethyl)phenyl]prop-2-yn-1-one [Compound C443]	100 to 500 nM
O=C(c1ccc2cc3ccccc3cc2c1)N1CCN(C(c2ccccc2)c2ccccc2)CC1 [Compound C301, 2-anthryl 4-(diphenylmethyl)piperazinyl ketone]	< 100 nM
O=C(C#Cc1ccccc1C(F)(F)F)N1CCN(C(=O)c2ccc(Cl)cc2)CC1 [Compound C309, 1-{4-[(4-chlorophenyl)carbonyl]piperazinyl}-3-[2-(trifluoromethyl)phenyl]prop-2-yn-1-one]	< 100 nM
(2E)-1-[4-(diphenylmethyl)piperazinyl]-3-(4-bromo-2-fluorophenyl)prop-2-en-1-one [Compound C24]	< 100 nM
CC(=O)c1ccc(S(=O)(=O)N2CCN(C(=O)/C=C/c3ccc(Br)cc3F)CC2)cc1 [Compound E5, 4-({4-[(2E)-3-(4-bromo-2-fluorophenyl)prop-2-enoyl]piperazinyl}sulfonyl)-1-acetylbenzene]	< 100 nM
CC(C)(C)c1ccc(S(=O)(=O)N2CCN(C(=O)/C=C/c3ccccc3F)CC2)cc1 [Compound C190, (2E)-1-(4-{[4-(tert-butyl)phenyl]sulfonyl}piperazinyl)-3-(2-fluorophenyl)prop-2-en-1-one]	500 to 5000 nM
O=C(/C=C/c1ccc(Br)cc1)N1CCN(Cc2ccccc2F)CC1 [Compound C269, (2E)-3-(4-bromophenyl)-1-{4-[(2-fluorophenyl)methyl]piperazinyl}prop-2-en-1-one]	< 100 nM
3-(2,4-difluorophenyl)-1-{4-[(4-fluorophenyl)carbonyl]piperazinyl}prop-2-yn-1-one [Compound C424]	100 to 500 nM
O=C(/C=C/c1ccc(F)cc1)N1CCN(S(=O)(=O)c2ccc3ccccc3c2)CC1 [Compound C221, (2E)-3-(4-fluorophenyl)-1-[4-(2-naphthylsulfonyl)piperazinyl]prop-2-en-1-one]	< 100 nM
O=C(c1ccc(C(F)(F)F)cc1)N1CCN(C(=O)c2cc3ccc(Br)cc3[nH]2)CC1 [Compound C375, 6-bromoindol-2-yl 4-{[4-(trifluoromethyl)phenyl]carbonyl}piperazinyl ketone]	100 to 500 nM
O=C(C#Cc1ccc(Br)cc1)N1CCN(C(=O)c2ccc(F)cc2C(F)(F)F)CC1 [Compound C336, 3-(4-bromophenyl)-1-(4-{[4-fluoro-2-(trifluoromethyl)phenyl]carbonyl}piperazinyl)prop-2-yn-1-one]	< 100 nM
O=C(/C=C/c1ccc(Br)cc1F)N1CCN(S(=O)(=O)c2ccccc2)CC1 [Compound C404, (2E)-3-(4-bromo-2-fluorophenyl)-1-[4-(phenylsulfonyl)piperazinyl]prop-2-en-1-one]	< 100 nM
O=C(C#Cc1ccc2c(c1)OCO2)N1CCN(C(=O)c2ccc(Br)cc2)CC1 [Compound C120, 3-(2H-benzo[3,4-d]1,3-dioxolen-5-yl)-1-{4-[(4-bromophenyl)carbonyl]piperazinyl}prop-2-yn-1-one]	< 100 nM
O=C(c1ccc(C(F)(F)F)c(F)c1)N1CCN(C(=O)c2cc3ccc(Br)cc3[nH]2)CC1 [Compound C329, 6-bromoindol-2-yl 4-{[3-fluoro-4-(trifluoromethyl)phenyl]carbonyl}piperazinyl ketone]	< 100 nM
CC(C)(C)c1ccc(CN2CCN(C(=O)/C=C/c3ccc(Br)cc3)CC2)cc1 [Compound C144, (2E)-1-(4-{[4-(tert-butyl)phenyl]methyl}piperazinyl)-3-(4-bromophenyl)prop-2-en-1-one]	< 100 nM
O=C(C=C(Br)c1ccc(Br)cc1)N1CCN(C(c2ccccc2)c2ccccc2)CC1 [Compound C155, 1-[4-(diphenylmethyl)piperazinyl]-3-bromo-3-(4-bromophenyl)prop-2-en-1-one]	< 100 nM
O=C(/C=C/c1ccc(Br)cc1)N1CCC(CNCc2ccc(C(F)(F)F)cc2)CC1 [Compound F2]	< 100 nM
O=C(c1ccc(F)cc1)N1CCN(C(=O)c2cc3cc(Br)ccc3[nH]2)CC1 [Compound C135, 5-bromoindol-2-yl 4-[(4-fluorophenyl)carbonyl]piperazinyl ketone]	< 100 nM
COC(=O)c1cccc(C(=O)N2CCN(C(=O)c3cc4cc(Cl)ccc4[nH]3)CC2)c1 [Compound C363, methyl 3-({4-[(5-chloroindol-2-yl)carbonyl]piperazinyl}carbonyl)benzoate]	100 to 500 nM
COc1ccc(/C=C/C(=O)N2CCN(C(c3ccccc3)c3ccccc3)CC2)cc1 [Compound C17, (2E)-1-[4-(diphenylmethyl)piperazinyl]-3-(4-methoxyphenyl)prop-2-en-1-one]	< 100 nM
O=C(C#Cc1ccc(Br)cc1)N1CCN(C(=O)c2ccc(F)cc2)CC1 [Compound C70, 3-(4-bromophenyl)-1-{4-[(4-fluorophenyl)carbonyl]piperazinyl}prop-2-yn-1-one]	< 100 nM

Compound	IC50
O=C(c1ccc(F)cc1)N1CCN(C(=O)c2cc3ccc(Cl)cc3[nH]2)CC1 [Compound C268, 6-chloroindol-2-yl 4-[(4-fluorophenyl)carbonyl]piperazinyl ketone]	< 100 nM
O=C(/C=C/c1ccc(F)cc1)N1CCN(S(=O)(=O)Cc2ccccc2)CC1 [Compound C323, (2E)-3-(4-fluorophenyl)-1-{4-[benzylsulfonyl]piperazinyl}prop-2-en-1-one]	< 100 nM
4-{[2-fluoro-4-(trifluoromethyl)phenyl]carbonyl}piperazinyl 5-(trifluoromethyl)indol-2-yl ketone [Compound C360]	< 100 nM
O=C(C#Cc1cc(F)cc(F)c1)N1CCN(Cc2ccc(Cl)cc2)CC1 [Compound C294, 3-(3,5-difluorophenyl)-1-{4-[(4-chlorophenyl)methyl]piperazinyl}prop-2-yn-1-one]	100 to 500 nM
O=Cc1ccc(C(=O)N2CCN(C(=O)c3cc4cc(Cl)ccc4[nH]3)CC2)cc1 [Compound C397, 4-({4-[(5-chloroindol-2-yl)carbonyl]piperazinyl}carbonyl)benzaldehyde]	< 100 nM
O=C(c1cc2cc(-c3ccccc3)ccc2[nH]1)N1CCN(C(c2ccccc2)c2ccccc2)CC1 [Compound C217, 4-(diphenylmethyl)piperazinyl 5-phenylindol-2-yl ketone]	< 100 nM
O=C(c1cc2ccccc2cn1)N1CCN(C(c2ccccc2)c2ccccc2)CC1 [Compound C468, 4-(diphenylmethyl)piperazinyl 3-isoquinolyl ketone]	100 to 500 nM
Cc1ccc2[nH]c(C(=O)N3CCN(Cc4ccc(Cl)cc4)CC3)cc2c1 [Compound C339, 4-[(4-chlorophenyl)methyl]piperazinyl 5-methylindol-2-yl ketone]	< 100 nM
Cc1ccc(C#CC(=O)N2CCN(C(=O)c3ccc(C(F)(F)F)cc3)CC2)cc1 [Compound C53, 3-(4-methylphenyl)-1-(4-{[4-(trifluoromethyl)phenyl]carbonyl}piperazinyl)prop-2-yn-1-one]	< 100 nM
O=C(C#Cc1cccc(Cl)c1)N1CCN(Cc2ccc(C(F)(F)F)cc2)CC1 [Compound C353, 3-(3-chlorophenyl)-1-(4-{[4-(trifluoromethyl)phenyl]methyl}piperazinyl)prop-2-yn-1-one]	< 100 nM
O=C(c1cn2ccccc2n1)N1CCN(C(=O)c2cc3cc(Cl)ccc3[nH]2)CC1 [Compound C279, 5-chloroindol-2-yl 4-(4-hydroimidazo[1,2-a]pyridin-2-ylcarbonyl)piperazinyl ketone]	100 to 500 nM
O=C(/C=C/c1ccc(Cl)c(Cl)c1)N1CCN(C(c2ccccc2)c2ccccc2)CC1 [Compound C5, (2E)-3-(3,4-dichlorophenyl)-1-[4-(diphenylmethyl)piperazinyl] prop-2-en-1-one]	< 100 nM
4-(diphenylmethyl)piperazinyl 6-bromoindol-2-yl ketone [Compound C108]	< 100 nM
CCOc1ccc(/C=C/C(=O)N2CCN(C(c3ccccc3)c3ccccc3)CC2)cc1 [Compound C21, (2E)-1-[4-(diphenylmethyl)piperazinyl]-3-(4-ethoxyphenyl)prop-2-en-1-one]	< 100 nM
O=C(c1ccccc1)C1CCN(C(=O)c2cc3cc(Cl)ccc3[nH]2)CC1 [Compound C229, 5-chloroindol-2-yl 4-(phenylcarbonyl)piperidyl ketone]	< 100 nM
O=C(/C=C/c1ccc([N+](=O)[O-])cc1)N1CCN(C(c2ccccc2)c2ccccc2)CC1 [Compound C63, (2E)-1-[4-(diphenylmethyl)piperazinyl]-3-(4-nitrophenyl)prop-2-en-1-one]	< 100 nM
3-(3,4-dichlorophenyl)-1-[4-(diphenylmethyl)piperazinyl]prop-2-yn-1-one [Compound C77]	< 100 nM
O=C(O)c1ccc(C(=O)N2CCN(C(=O)c3cc4cc(Cl)ccc4[nH]3)CC2)cc1 [Compound C460, 4-({4-[(5-chloroindol-2-yl)carbonyl]piperazinyl}carbonyl)benzoic acid]	100 to 500 nM
O=C(c1ccc(Cl)cc1)N1CCN(C(=O)c2cc3cc(Cl)ccc3[nH]2)CC1 [Compound C89, 5-chloroindol-2-yl 4-[(4-chlorophenyl)carbonyl]piperazinyl ketone]	< 100 nM
tert-butyl 4-(indol-2-ylcarbonyl)piperazinecarboxylate [Compound C414]	100 to 500 nM
O=C(/C=C/c1ccc(Br)cc1)N1CCN(Cc2ccc(Cl)cc2C(F)(F)F)CC1 [Compound C91, (2E)-3-(4-bromophenyl)-1-(4-{[4-chloro-2-(trifluoromethyl)phenyl]methyl}piperazinyl)prop-2-en-1-one]	< 100 nM
